Test results: patent publication US8163737B2 (Vertex Pharmaceuticals Incorporated, priority 2006, dated 2012)

target: endogenous CGRP receptor (Homo sapiens, UniProt O60894+Q16602); assay: CGRP functional antagonism using SK-N-MC-BLA (4C10), β-lactamase transcriptional reporter assay; assay type: cell-based; details: SK-N-MC (4C10) cells, inhibition of β-lactamase expression in the presence of 200 pM CGRP
Excerpt: Measuring CGRP Functional Antagonism Using SK-N-MC-BLA (4C10):
CGRP functional antagonism was characterized in a cell based transcriptional assay using a recombinant SK-N-MC line. To introduce the transcriptional reporter system, SK-N-MC cell line was transduced with a retroviral vector containing β-lactamase gene downstream of cAMP responsive promoter. The expression of β-lactamase is triggered by cAMP increase that is a downstream event of activation of endogenous CGRP receptor. Single clones were separated using Fluorescent Activated Cell Sorting (FACS) based on CGRP induced β-lactamase activity. β-lactamase activity was measured using a fluorescence energy transfer (FRET) dye, CCF4. […] To evaluate functional antagonist activity of compounds in SK-N-MC (4C10) line, compounds were evaluated for their inhibition of β-lactamase expression in the presence of CGRP.
SK-N-MC (4C10) was cultured in Minimal Essential Media (MEM) (Invitrogen) supplemented with 1 mM non-essential amino acids solution (Invitrogen), 100 units/ml Penicillin-Streptomycin (Invitrogen), 1 mM sodium pyruvate (Invitrogen) and 10% fetal bovine serum. For the β-lactamase assay, low serum, 1% FBS in MEM was used. 30,000 cells were plated into each wells of poly-D-lysine coated 384-well plate (Becton Dickinson) a day prior to the assay. SK-N-MC (4C10) was preincubated with compounds for 30 min before the addition of 200 pM CGRP. The assay was incubated for 3 hours at 37° C. to allow β-lactamase expression. CCF4 dye was added and incubated for 2 hours at room temperature. […] Curve fitting and IC50 calculation were carried about using MOD3.

Chain of endogenous CGRP receptor (Q16602 23-461): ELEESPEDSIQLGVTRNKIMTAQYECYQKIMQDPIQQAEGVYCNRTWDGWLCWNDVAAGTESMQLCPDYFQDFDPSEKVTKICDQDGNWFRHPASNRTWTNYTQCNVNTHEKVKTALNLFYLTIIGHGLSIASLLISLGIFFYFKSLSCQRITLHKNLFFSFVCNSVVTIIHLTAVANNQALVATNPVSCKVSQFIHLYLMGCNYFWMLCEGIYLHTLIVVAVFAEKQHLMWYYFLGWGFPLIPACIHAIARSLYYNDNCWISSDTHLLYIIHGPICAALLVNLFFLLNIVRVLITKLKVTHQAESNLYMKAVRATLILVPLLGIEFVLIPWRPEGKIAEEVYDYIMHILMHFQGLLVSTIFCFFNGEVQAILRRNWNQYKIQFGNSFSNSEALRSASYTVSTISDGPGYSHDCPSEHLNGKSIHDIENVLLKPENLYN
Chain of endogenous CGRP receptor (O60894 27-148): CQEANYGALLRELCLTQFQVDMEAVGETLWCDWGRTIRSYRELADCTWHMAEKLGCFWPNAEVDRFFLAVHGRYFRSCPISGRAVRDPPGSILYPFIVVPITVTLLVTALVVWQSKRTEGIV

Structure (SMILES) | IC50 [nM]
CN1CCN(c2ccccc2[C@@H]2SC(CC(=O)N3CCC(n4c(=O)[nH]c5ncccc54)CC3)C(=O)N2CCC(C)(C)C)CC1 (stereo partly drawn) [Compound 274] | < 1000
Cc1ccc(C2SC(CC(=O)N3CCC(N4Cc5ccccc5NC4=O)CC3)C(=O)N2CCC(C)C)c(C)c1 (stereo not drawn) [Compound 222] | < 1000
CC(C)(C)CCN1C(=O)C(CC(=O)N2CCC(N3CCc4ccccc4NC3=O)CC2)SC1c1cccc2cc[nH]c12 (stereo not drawn) [Compound 130] | 1000 to 5000
CC(C)N1CCN(c2ncccc2C2S[C@@H](CC(=O)N3CCC(N4CCc5ccccc5NC4=O)CC3)C(=O)N2CCC(C)(C)C)CC1 (stereo partly drawn) [Compound 444] | > 5000
CC(C)CC1SC(CC(=O)N2CCC(N3CCc4ccccc4NC3=O)CC2)C(=O)N1CCc1ccncc1 (stereo not drawn) [Compound 245] | > 5000
CC(=O)N1CC2(CCN(C(=O)CC3SC(c4ccccc4)N(CCC(C)C)C3=O)CC2)c2cc(C(F)(F)F)ccc21 (stereo not drawn) [Compound 131] | > 5000
CC(C)(C)CCN1C(=O)C(CC(=O)N2CCC(N3Cc4ccccc4NC3=O)CC2)SC12CCSCC2 (stereo not drawn) [Compound 31] | < 1000
CC(C)CCN1C(=O)C(CC(=O)N2CCC(N3CCc4ccccc4NC3=O)CC2)SC1c1cccc(C(F)(F)F)c1F (stereo not drawn) [Compound 23] | < 1000
CC(C)CCN1C(=O)C(CC(=O)N2CCC(N3Cc4ccccc4NC3=O)CC2)SC12CCCCC2 (stereo not drawn) [Compound 86] | 1000 to 5000
CC(C)(C)CCN1C(=O)C(CC(=O)N2CCC(N3CCc4ccccc4NC3=O)CC2)SC1c1c(F)cccc1F (stereo not drawn) [Compound 217] | < 1000
COc1ccc(F)cc1C1CCN(C(=O)CC2SC(c3ccccc3)N(CCC(C)C)C2=O)CC1 (stereo not drawn) [Compound 281] | > 5000
O=C(CC1SC(C2CCOCC2)N(c2ccc(N3CCOCC3)cc2)C1=O)N1CCC(N2CCc3ccccc3NC2=O)CC1 (stereo not drawn) [Compound 422] | < 1000
CC(C)(C)CCN1C(=O)C(CC(=O)N2CCC(N3CCc4ccccc4NC3=O)CC2)SC12c1ccccc1-c1ccccc12 (stereo not drawn) [Compound 310] | < 1000
O=C(CC1SC(C2CCCCC2)N(c2ccccc2)C1=O)N1CCC(n2c(=O)[nH]c3ncccc32)CC1 (stereo not drawn) [Compound 424] | < 1000
CC(C)CCN1C(=O)C(CC(=O)N2CCC(N3Cc4ccccc4NC3=O)CC2)SC1C1CCOCC1 (stereo not drawn) [Compound 201] | 1000 to 5000
CCCN1C(=O)C(CC(=O)N2CCC(N3Cc4ccccc4NC3=O)CC2)SC1c1ccccc1 (stereo not drawn) [Compound 269] | 1000 to 5000
CC(C)(C)CCN1C(=O)C(CC(=O)N2CCC(N3CCc4ccccc4NC3=O)CC2)SC1c1c[nH]cn1 (stereo not drawn) [Compound 313] | < 1000
CN1CCN(c2ccccc2[C@H]2SC(CC(=O)N3CCC(n4c(=O)[nH]c5ccccc54)CC3)C(=O)N2CCC(C)(C)C)CC1 (stereo partly drawn) [Compound 22] | 1000 to 5000
CC(C)CCN1C(=O)C(CC(=O)N2CCC3(CC2)C(=O)NCN3c2ccccc2)SC1c1ccccc1 (stereo not drawn) [Compound 186] | > 5000

Structure (SMILES) | IC50 [nM]
CC(C)N1CCN(c2c(F)cccc2C2S[C@@](C)(CC(=O)N3CCC(n4c(=O)[nH]c5ncccc54)CC3)C(=O)N2CCC(C)(C)C)CC1 (stereo partly drawn) [Compound 445] | 1000 to 5000
Cc1ccc(C2SC(CC(=O)N3CCC(N4CCc5ccccc5NC4=O)CC3)C(=O)N2CCC(C)C)c(C)c1 (stereo not drawn) [Compound 73] | < 1000
CC(C)(C)CCN1C(=O)C(CC(=O)N2CCC(N3Cc4ccccc4NC3=O)CC2)SC12CCCCCC2 (stereo not drawn) [Compound 154] | < 1000
CN1CCCC1CCN1C(=O)C(CC(=O)N2CCC(N3Cc4ccccc4NC3=O)CC2)SC1c1ccccc1 (stereo not drawn) [Compound 77] | > 5000
CC(C)N1CCN(c2c(F)cccc2[C@H]2S[C@@H](CC(=O)N3CCC(N4CCc5ccccc5NC4=O)CC3)C(=O)N2CCC(C)(C)C)CC1 [Compound 396] | 1000 to 5000
CN1CCN(c2ccccc2[C@H]2S[C@](C)(CC(=O)N3CCC(N4CCc5ccccc5NC4=O)CC3)C(=O)N2CCC(C)(C)C)CC1 [Compound 377] | 1000 to 5000
CC(C)CCN1C(=O)C(CC(=O)N2CCC(N3Cc4ccccc4NC3=O)CC2)SC1C(C)c1ccccc1 (stereo not drawn) [Compound 101] | > 5000
CC(C)CCN1C(=O)C(CC(=O)N2CCC(N3CCc4ccccc4NC3=O)CC2)SC1c1ccccc1OCc1ccccc1 (stereo not drawn) [Compound 65] | < 1000
CC(C)N1CCN(c2c(F)cccc2[C@@H]2S[C@](C)(CC(=O)N3CCC(N4CCc5ccccc5NC4=O)CC3)C(=O)N2CCC(C)(C)C)CC1 [Compound 430] | > 5000
Cc1cc(C)c(C2SC(CC(=O)N3CCC(N4Cc5ccccc5NC4=O)CC3)C(=O)N2CCC(C)C)c(C)c1 (stereo not drawn) [Compound 51] | < 1000
CC(C)(C)CCN1C(=O)C(CC(=O)N2CCC(N3CCc4ccccc4NC3=O)CC2)SC12CCCc1ccccc12 (stereo not drawn) [Compound 308] | < 1000
CC(C)(C)CCN1C(=O)C(CC(=O)N2CCC(N3Cc4ccccc4NC3=O)CC2)SC1c1ccc(F)cc1F (stereo not drawn) [Compound 234] | < 1000
CC(C)CCN1C(=O)C(CC(=O)N2CCC(N3CCc4ccccc4NC3=O)CC2)SC1[C@@H](C)c1ccccc1 (stereo partly drawn) [Compound 11] | < 1000
CN1C(=O)C(CC(=O)N2CCC(N3Cc4ccccc4NC3=O)CC2)SC1c1ccccc1 (stereo not drawn) [Compound 273, 3,4-Dihydro-3-(1-(2-(3-methyl-4-oxo-2-phenylthiazolidin-5-yl)acetyl)piperidin-4-yl)quinazolin-2(1H)-one] | 1000 to 5000
CN1CCN(c2ccccc2C2SC(CC(=O)N3CCC4(CC3)CC(=O)c3ccccc3O4)C(=O)N2CCC(C)(C)C)CC1 (stereo not drawn) [Compound 332] | > 5000
CC(C)(C)CCN1C(=O)C(CC(=O)N2CCC(N3CCc4ccccc4NC3=O)CC2)SC1c1cccc(F)c1N1CC(F)(C2CC2)C1 (stereo not drawn) [Compound 411] | 1000 to 5000
CC(C)(C)CC1SC(CC(=O)N2CCC(N3CCc4ccccc4NC3=O)CC2)C(=O)N1c1ccc(N2CCOCC2)cc1 (stereo not drawn) [Compound 423] | < 1000
CC(C)(C)CCN1C(=O)C(CC(=O)N2CCC(N3Cc4ccccc4NC3=O)CC2)SC1c1cccc2cc[nH]c12 (stereo not drawn) [Compound 94] | > 5000
CC(C)CCN1C(=O)C(CC(=O)N2CCC(N3CCc4ccccc4NC3=O)CC2)SC1C1CCCOC1 (stereo not drawn) [Compound 239] | < 1000

Structure (SMILES) | IC50 [nM]
CN1CCC(N2CCN(c3ccccc3C3SC(CC(=O)N4CCC(n5c(=O)[nH]c6ncccc65)CC4)C(=O)N3CCC(C)(C)C)CC2)CC1 (stereo not drawn) [Compound 381] | > 5000
CN1CCN(c2ccc(F)cc2C2SC(CC(=O)N3CCC(N4CCc5ccccc5NC4=O)CC3)C(=O)N2CCC(C)(C)C)CC1 (stereo not drawn) [Compound 352] | < 1000
CC(C)(C)CCN1C(=O)[C@H](CC(=O)N2CCC(N3CCc4ccccc4NC3=O)CC2)SC1c1cccc(F)c1N1CCNCC1 (stereo partly drawn) [Compound 398] | > 5000
O=C(CC1SC(c2ccc(F)cc2F)N(CC2CCCCC2)C1=O)N1CCC(N2CCc3ccccc3NC2=O)CC1 (stereo not drawn) [Compound 135] | < 1000
O=C(CC1SC(C2CCCCC2)N(c2ccc(N3CCOCC3)cc2)C1=O)N1CCC(N2CCc3ccccc3NC2=O)CC1 (stereo not drawn) [Compound 421] | < 1000
COc1cccc(C2SC(CC(=O)N3CCC(N4Cc5ccccc5NC4=O)CC3)C(=O)N2CCC(C)C)c1 (stereo not drawn) [Compound 139] | 1000 to 5000
CCCN1C(=O)C(CC(=O)N2CCC(N3CCc4ccccc4NC3=O)CC2)SC1c1ccccc1 (stereo not drawn) [Compound 38] | < 1000
CC(C)CCN1C(=O)C(C(C)C(=O)N2CCC(N3Cc4ccccc4NC3=O)CC2)SC1c1ccccc1 (stereo not drawn) [Compound 156, 3-(1-(2-(3-Isopentyl-4-oxo-2-phenylthiazolidin-5-yl)propanoyl)piperidin-4-yl)-3,4-dihydroquinazolin-2(1H)-one] | < 1000
CC(C)CCN1C(=O)C(CC(=O)N2CCC(n3c(=O)[nH]c4ccccc43)CC2)SC1c1ccccc1-n1cccn1 (stereo not drawn) [Compound 291] | < 1000
CN1C(=O)C(CC(=O)N2CCC(N3CCc4ccccc4NC3=O)CC2)SC1c1ccccc1 (stereo not drawn) [Compound 132] | 1000 to 5000
CN1CCN(c2ccccc2[C@@H]2S[C@H](CC(=O)N3CCC(N4CCc5ccccc5NC4=O)CC3)C(=O)N2CCC(C)(C)C)CC1 [Compound 388] | > 5000
O=C(CC1SC(c2ccccc2)N(CCC(F)(F)F)C1=O)N1CCC(N2CCc3ccccc3NC2=O)CC1 (stereo not drawn) [Compound 280] | < 1000
C[C@@H]1CN(c2c(F)cccc2[C@@H]2S[C@@H](CC(=O)N3CCC(N4CCc5ccccc5NC4=O)CC3)C(=O)N2CCC(C)(C)C)C[C@H](C)N1 [Compound 476] | > 5000
CC(C)CCN1C(=O)C(CC(=O)N2CCC(N3CCc4ccccc4NC3=O)CC2)SC1Cc1ccccc1 (stereo not drawn) [Compound 98] | 1000 to 5000
CC(C)CCN1C(=O)C(CC(=O)N2CCC(N3CCc4ccccc4NC3=O)CC2)SC1c1ccccc1N(C)C (stereo not drawn) [Compound 152] | < 1000
COc1ccc(C2SC(CC(=O)N3CCC(N4Cc5ccccc5NC4=O)CC3)C(=O)N2CCC(C)C)cc1F (stereo not drawn) [Compound 18] | 1000 to 5000
CC(C)CCN1C(=O)C(CC(=O)N2CCC(N3Cc4ccccc4NC3=O)CC2)SC1C1CCCCC1 (stereo not drawn) [Compound 95] | < 1000
CC(C)(C)CCN1C(=O)C(CC(=O)N2CCC(N3CCc4ccccc4NC3=O)CC2)SC1c1ccccc1N1CCC(N2CCCCC2)CC1 (stereo not drawn) [Compound 384] | > 5000
CC(C)(C)CCN1C(=O)[C@H](CC(=O)N2CCC(n3c(=O)[nH]c4ncccc43)CC2)S[C@H]1c1cccc(F)c1N1CCC(N2CCCCC2)CC1 [Compound 441] | < 1000
